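Tested at 5 concentrations; 48 h exposure; 96-well plates; endpoints linearly interpolated, else capped at highest concentration. The concentration for 50% growth inhibition is given as GI50. TGI: total growth inhibition.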 Where a SMILES comes first, the peptide text is derived from it. [ ]: non-standard residue; d: D form. pGlu = O=C1CC[CH](C(=O)O)N1; Thz = O=C(O)[CH]1CSCN1
Experiments:
Test in all cases: NCI anticancer screen, dose series, 48 h
OVCAR-5 ovarian = tested on: OVCAR-5 ovarian
UACC-62 melanoma = tested on: UACC-62 melanoma
SK-OV-3 ovarian = tested on: SK-OV-3 ovarian
HCT-15 colon = tested on: HCT-15 colon
MCF7 breast = tested on: MCF7 breast
EKVX NSCLC = tested on: EKVX NSCLC
IGROV1 ovarian = tested on: IGROV1 ovarian
NCI-H226 lung = tested on: NCI-H226 lung
UACC-257 melanoma = tested on: UACC-257 melanoma
NCI/ADR-RES ovarian = tested on: NCI/ADR-RES ovarian
HOP-92 NSCLC = tested on: HOP-92 NSCLC

COc1ccc(C(=O)/C=C/c2ccc(OCCCCCCCCCCOc3ccc(/C=C/C(=O)c4ccc(OC)cc4)cc3)cc2)cc1
TGI (OVCAR-5 ovarian): > 100 µM | TGI (UACC-62 melanoma): > 100 µM | TGI (SK-OV-3 ovarian): > 100 µM | TGI (HCT-15 colon): > 100 µM | TGI (MCF7 breast): > 100 µM | TGI (EKVX NSCLC): > 100 µM | TGI (IGROV1 ovarian): > 100 µM | TGI (NCI-H226 lung): > 100 µM | TGI (UACC-257 melanoma): > 100 µM | TGI (NCI/ADR-RES ovarian): > 100 µM

CO/C=C(/C(=O)OC)[C@@H]1C[C@@H]1c1ccc2ccccc2c1
TGI (OVCAR-5 ovarian): > 100 µM | TGI (HOP-92 NSCLC): 72.9 µM | TGI (UACC-62 melanoma): > 100 µM | TGI (SK-OV-3 ovarian): 59.4 µM | TGI (HCT-15 colon): 49.9 µM | TGI (MCF7 breast): > 100 µM | TGI (EKVX NSCLC): 60 µM | TGI (IGROV1 ovarian): 70.7 µM | TGI (NCI-H226 lung): > 100 µM | TGI (UACC-257 melanoma): 71.9 µM | TGI (NCI/ADR-RES ovarian): 65.3 µM

O=[N+]([O-])c1ccc(-c2csc(N=Nc3c(O)[nH]c4ccccc34)n2)cc1
TGI (OVCAR-5 ovarian): 45.4 µM | TGI (HOP-92 NSCLC): 74.5 µM | TGI (SK-OV-3 ovarian): > 100 µM | TGI (HCT-15 colon): 30.1 µM | TGI (MCF7 breast): > 100 µM | TGI (EKVX NSCLC): > 100 µM | TGI (IGROV1 ovarian): 57.9 µM | TGI (NCI-H226 lung): > 100 µM | TGI (UACC-257 melanoma): > 100 µM | TGI (NCI/ADR-RES ovarian): > 100 µM

CC(=O)OCc1c(O)c2c([nH]c1=O)CCc1ccccc1-2
TGI (HOP-92 NSCLC): 182 µM | TGI (UACC-62 melanoma): 119 µM | TGI (SK-OV-3 ovarian): > 350 µM | TGI (HCT-15 colon): 112 µM | TGI (EKVX NSCLC): > 350 µM | TGI (IGROV1 ovarian): > 350 µM | TGI (NCI-H226 lung): > 350 µM | TGI (UACC-257 melanoma): 203 µM

CCOC(=O)C12CCC(=O)N1N(C)c1ncccc1N2 (stereo not drawn)
TGI (OVCAR-5 ovarian): > 100 µM | TGI (UACC-62 melanoma): > 100 µM | TGI (SK-OV-3 ovarian): > 100 µM | TGI (HCT-15 colon): > 100 µM | TGI (MCF7 breast): > 100 µM | TGI (EKVX NSCLC): > 100 µM | TGI (IGROV1 ovarian): > 100 µM | TGI (NCI-H226 lung): > 100 µM | TGI (UACC-257 melanoma): > 100 µM | TGI (NCI/ADR-RES ovarian): > 100 µM

CC(NC(=O)C1CCC(=O)N1)C(=O)N1CCCC1C(N)=O (stereo not drawn) ([pGlu]-Ala-Pro-NH2; configuration not given here)
TGI (OVCAR-5 ovarian): > 100 µM | TGI (HOP-92 NSCLC): > 100 µM | TGI (UACC-62 melanoma): > 100 µM | TGI (SK-OV-3 ovarian): > 100 µM | TGI (HCT-15 colon): > 100 µM | TGI (MCF7 breast): > 100 µM | TGI (EKVX NSCLC): > 100 µM | TGI (IGROV1 ovarian): > 100 µM | TGI (NCI-H226 lung): > 100 µM | TGI (NCI/ADR-RES ovarian): > 100 µM

CC(=O)Nc1nc(C)c(S(=O)(=O)NC(=O)NC2NC(=O)NC2=O)s1 (stereo not drawn)
TGI (OVCAR-5 ovarian): > 100 µM | TGI (HOP-92 NSCLC): > 100 µM | TGI (UACC-62 melanoma): > 100 µM | TGI (SK-OV-3 ovarian): > 100 µM | TGI (HCT-15 colon): > 100 µM | TGI (MCF7 breast): > 100 µM | TGI (EKVX NSCLC): > 100 µM | TGI (IGROV1 ovarian): > 100 µM | TGI (UACC-257 melanoma): > 100 µM | TGI (NCI/ADR-RES ovarian): > 100 µM

Cc1nc2c(c(N3CCN(C)CC3)n1)Cc1ccccc1-2
TGI (OVCAR-5 ovarian): > 100 µM | TGI (HOP-92 NSCLC): > 100 µM | TGI (UACC-62 melanoma): > 100 µM | TGI (SK-OV-3 ovarian): > 100 µM | TGI (HCT-15 colon): > 100 µM | TGI (MCF7 breast): > 100 µM | TGI (EKVX NSCLC): > 100 µM | TGI (NCI-H226 lung): > 100 µM | TGI (UACC-257 melanoma): > 100 µM | TGI (NCI/ADR-RES ovarian): > 100 µM

O=C(O)/C=C/c1ccc(Oc2ccccc2C(=O)O)o1
TGI (HOP-92 NSCLC): > 10 µM | TGI (UACC-62 melanoma): > 10 µM | TGI (SK-OV-3 ovarian): > 10 µM | TGI (HCT-15 colon): > 10 µM | TGI (MCF7 breast): > 10 µM | TGI (IGROV1 ovarian): > 10 µM | TGI (UACC-257 melanoma): > 10 µM | TGI (NCI/ADR-RES ovarian): > 10 µM

O=C1CCC(C(=O)N2CSCC2C(=O)O)N1 (stereo not drawn) ([pGlu]-[Thz]-OH; configuration not given here)
TGI (OVCAR-5 ovarian): > 100 µM | TGI (UACC-62 melanoma): > 100 µM | TGI (SK-OV-3 ovarian): > 100 µM | TGI (HCT-15 colon): > 100 µM | TGI (MCF7 breast): > 100 µM | TGI (IGROV1 ovarian): > 100 µM | TGI (NCI-H226 lung): > 100 µM | TGI (UACC-257 melanoma): > 100 µM | TGI (NCI/ADR-RES ovarian): > 100 µM

O=c1onc2n1-c1ccc(Cl)cc1C(=S)N1CSCC21 (stereo not drawn)
TGI (OVCAR-5 ovarian): > 100 µM | TGI (UACC-62 melanoma): > 100 µM | TGI (SK-OV-3 ovarian): 49.4 µM | TGI (HCT-15 colon): 95.3 µM | TGI (MCF7 breast): 96.9 µM | TGI (EKVX NSCLC): > 100 µM | TGI (IGROV1 ovarian): > 100 µM | TGI (NCI-H226 lung): 83.1 µM | TGI (UACC-257 melanoma): > 100 µM | TGI (NCI/ADR-RES ovarian): 36.4 µM

NC(=S)N1N=C2CCCCCC[C@@H]2[C@H]1c1ccccc1
TGI (OVCAR-5 ovarian): > 100 µM | TGI (UACC-62 melanoma): > 100 µM | TGI (SK-OV-3 ovarian): > 100 µM | TGI (HCT-15 colon): > 100 µM | TGI (EKVX NSCLC): > 100 µM | TGI (IGROV1 ovarian): > 100 µM | TGI (NCI-H226 lung): > 100 µM | TGI (UACC-257 melanoma): > 100 µM

COc1ccc(CCN2CCN(CCCc3ccccc3)CC2)cc1
TGI (OVCAR-5 ovarian): > 100 µM | TGI (UACC-62 melanoma): > 100 µM | TGI (SK-OV-3 ovarian): > 100 µM | TGI (HCT-15 colon): > 100 µM | TGI (MCF7 breast): > 100 µM | TGI (EKVX NSCLC): > 100 µM | TGI (IGROV1 ovarian): > 100 µM | TGI (NCI-H226 lung): > 100 µM | TGI (UACC-257 melanoma): > 100 µM | TGI (NCI/ADR-RES ovarian): > 100 µM

O=[N+]([O-])c1nccn1CC(O)c1ccccc1 (stereo not drawn)
TGI (OVCAR-5 ovarian): > 100 µM | TGI (HOP-92 NSCLC): > 100 µM | TGI (UACC-62 melanoma): > 100 µM | TGI (SK-OV-3 ovarian): > 100 µM | TGI (HCT-15 colon): > 100 µM | TGI (EKVX NSCLC): > 100 µM | TGI (IGROV1 ovarian): > 100 µM | TGI (NCI-H226 lung): > 100 µM | TGI (UACC-257 melanoma): > 100 µM

C=CCC1(C(=O)OC)CCC/C(=N\O)C1 (stereo not drawn)
TGI (HOP-92 NSCLC): > 10 µM | TGI (UACC-62 melanoma): > 10 µM | TGI (SK-OV-3 ovarian): > 10 µM | TGI (HCT-15 colon): > 10 µM | TGI (MCF7 breast): > 10 µM | TGI (IGROV1 ovarian): > 10 µM | TGI (UACC-257 melanoma): > 10 µM | TGI (NCI/ADR-RES ovarian): > 10 µM

CCCCN(CC)C(=O)C(=O)Cc1nc2ccc(C(=O)c3ccccc3)cc2[nH]c1=O
TGI (OVCAR-5 ovarian): > 100 µM | TGI (HOP-92 NSCLC): > 100 µM | TGI (UACC-62 melanoma): > 100 µM | TGI (SK-OV-3 ovarian): > 100 µM | TGI (HCT-15 colon): > 100 µM | TGI (EKVX NSCLC): > 100 µM | TGI (IGROV1 ovarian): > 100 µM | TGI (NCI-H226 lung): > 100 µM | TGI (UACC-257 melanoma): > 100 µM

COc1ccc(S(=O)(=O)Nc2ccc(-c3csc(N4C(=O)/C(=C/c5ccccc5[N+](=O)[O-])N=C4c4ccccc4)n3)cc2)cc1Cl
TGI (OVCAR-5 ovarian): > 100 µM | TGI (HOP-92 NSCLC): 87.5 µM | TGI (UACC-62 melanoma): > 100 µM | TGI (SK-OV-3 ovarian): > 100 µM | TGI (HCT-15 colon): 81.2 µM | TGI (MCF7 breast): > 100 µM | TGI (IGROV1 ovarian): > 100 µM | TGI (NCI-H226 lung): > 100 µM | TGI (UACC-257 melanoma): > 100 µM | TGI (NCI/ADR-RES ovarian): > 100 µM

CC1OC(OC2C(O)COC(OC3C(C)OC(OC4C(OC(=O)[C@]56CCC(C)(C)C[C@@H]5C5=CCC7[C@@]8(C)C[C@H](O)[C@H](OC9OC(CO)C(O)C(O)C9O)[C@@](C)(CO)[C@@H]8CC[C@@]7(C)[C@]5(C)CC6)OCC(O)C4O)C(O)C3O)C2O)C(O)C(O)C1O (stereo partly drawn)
TGI (OVCAR-5 ovarian): 36.4 µM | TGI (HOP-92 NSCLC): 45.2 µM | TGI (UACC-62 melanoma): 40.1 µM | TGI (SK-OV-3 ovarian): 37.8 µM | TGI (HCT-15 colon): 50.8 µM | TGI (MCF7 breast): > 100 µM | TGI (EKVX NSCLC): 33.1 µM | TGI (NCI-H226 lung): 50.2 µM | TGI (UACC-257 melanoma): 37 µM | TGI (NCI/ADR-RES ovarian): 44.9 µM

FC1(F)ON2CCc3ccccc3C2[C@H]1c1ccccc1 (stereo partly drawn)
GI50 (OVCAR-5 ovarian): > 100 µM | TGI (OVCAR-5 ovarian): > 100 µM | GI50 (UACC-62 melanoma): > 100 µM | TGI (UACC-62 melanoma): > 100 µM | GI50 (SK-OV-3 ovarian): > 100 µM | TGI (SK-OV-3 ovarian): > 100 µM | GI50 (HCT-15 colon): > 100 µM | TGI (HCT-15 colon): > 100 µM | GI50 (MCF7 breast): > 100 µM | TGI (MCF7 breast): > 100 µM | GI50 (EKVX NSCLC): > 100 µM | TGI (EKVX NSCLC): > 100 µM | GI50 (IGROV1 ovarian): > 100 µM | TGI (IGROV1 ovarian): > 100 µM | TGI (NCI-H226 lung): > 100 µM | GI50 (UACC-257 melanoma): > 100 µM | TGI (UACC-257 melanoma): > 100 µM | TGI (NCI/ADR-RES ovarian): > 100 µM

COc1cc(C2C=C(c3ccccc3)Oc3cc4c(cc32)OCO4)cc(OC)c1OC (stereo not drawn)
TGI (OVCAR-5 ovarian): > 100 µM | TGI (HOP-92 NSCLC): > 100 µM | TGI (UACC-62 melanoma): > 100 µM | TGI (SK-OV-3 ovarian): > 100 µM | TGI (HCT-15 colon): > 100 µM | TGI (MCF7 breast): > 100 µM | TGI (EKVX NSCLC): > 100 µM | TGI (IGROV1 ovarian): > 100 µM | TGI (UACC-257 melanoma): > 100 µM | TGI (NCI/ADR-RES ovarian): > 15.2 µM

Reference: PubChem BioAssay (NCI)
